{"source": "patent US20150224211A1", "about": "“LEUKOCYTES AS DELIVERY CELLS FOR IMAGING AND DISEASE THERAPY” (priority 2012, published 2015)", "key": {"[1]": {"test_system": "4T1 mouse mammary carcinoma cells", "test": "In situ photodynamic therapy (ALA plus luminol) of mouse mammary tumors", "format": "in vivo", "conditions": "ALA 100 mg/kg IP prior to luminol 250 mg/kg IP; treatment repeated; four days after PDT", "description": "1×10^5 4T1 mouse mammary carcinoma cells (ATCC) were transplanted into a mammary fat pad of a mouse. Four, six, eight and ten days after transplant, luminol (Sigma-Aldrich) was administered intrapertioneally (IP)(250 mg/kg) and the mouse was imaged on an IVIS Lumina imaging apparatus. For in situ photodynamic therapy, the sensitizer alpha aminolevulinic acid (ALA), which is a precursor to protoporphyrin IX (a clinically used photosensitizer), was administered IP (100 mg/kg,) prior to luminol administration. […] Adjunct treatments designed to enhance the PDT effect included the administration of the TGF-β inhibitor LY34947 (1 mg/kg, IP), streptokinase (800 units/mouse, IV), or a combination of LY34947 and streptokinase."}, "[2]": {"test_system": "Fusobacterium necrophorum subsp. necrophorum strain 8L1", "test": "Efficacy study in mouse model of liver abscesses", "format": "in vivo, BALB/c mice", "conditions": "60 μg CHX in 1.3×10^6 neutrophils", "protocol": "In an efficacy study that followed, Fusobacterium necrophorum subsp. necrophorum strain 8L1 was grown overnight from a single colony in PRAS-BHI. 0.3 ml of the starter culture was added to 10 ml of fresh PRAS-BHI broth and grown to an O.D.600 of 0.7. 1 ml of this culture was diluted 1:40 to achieve a final concentration of approximately 4·10^6 CFU/ml. 400 μl of the diluted bacteria was injected intraperitonially into 10 week old BALB/c mice.\nTen-week old BALB/c mice were randomly assigned into 6 groups with 9 mice per group. On day zero, all mice were infected intraperitonially with an infectious dose (approximately 1×10^7 CFU) of F. necrophorum. On day 3, mice were injected (via tail vein) with 100 μl PBS (control), unmodified neutrophils, neutrophils carrying microparticles (an average of 20 cells of M. luteus loaded with chlorhexidine), or neutrophils containing unmodified, heat deactivated M. luteus. The animals were monitored for clinical signs for 5 days after treatment and were euthanized if any clinical signs developed. The mice were euthanized 5 days post treatment and all mice were examined post mortem for abscesses in the livers. Livers of the mice were weighed and homogenized in a tissue homogenizer for 1 min in modified lactate (ML) broth. […]"}}, "note": "“Also recorded” adds a separate entry of the source.", "data": [{"compound": "NCC(=O)CCC(=O)O", "note": "[ALA, 5-aminolevulinic acid]", "values": [{"measurement": "tumor response determined by imaging with luciferin", "setting": "[1]", "result": "can attenuate tumors; also recorded: dramatic regression of the tumors"}]}, {"compound": "[H]/N=C(\\N/C(=N/[H])NCCCCCCNC(=N)NC(=N)Nc1ccc(Cl)cc1)Nc1ccc(Cl)cc1", "note": "[CHX, chlorhexidine gluconate]", "values": [{"measurement": "effect against the hepatic disease caused by F. necrophorum", "setting": "[2]", "result": "effective"}]}]}
